The record followed here is patent US20080293076A1, “Method to improve barrier function of cell-cell junctions” (UMC Utrecht Holding B.V., priority 2007, published 2008).

The assay deals with HUVEC. In words: Endothelial permeability assay: electrical resistance across HUVEC monolayer (ECIS). The note with it: for decreased resistance in PDZ-GEF2-depleted cells: PDZ-GEF2 siRNA. In kind it is cell-based, human. On the procedure: FIG. 2: PDZ-GEF2 knockdown in HUVECs leads to immature adherens junction and decreases endothelial resistance. Panel A: PDZ-GEF2 knockdown leads to immature VE-cadherin-based junctions in endothelial cells. HUVEC were transfected twice with scrambled, Epac1 or PDZ-GEFs siRNA and replated on glass coverslips. The cells were fixed when they formed a monolayer and immunostained with anti-VE-cadherin antibody. Panel B: Basal electrical resistance across HUVEC monolayers. Cells were treated as described in A and replated on electrodes. ECIS was measured continuously for 15 hours and the values reported are the final time points. […] The values reported correspond to the endothelial resistance measured 90 minutes after adding 007 to the culture media. * p<0.03 control mock vs 007; p<0.001 PDZ-GEF2.285 mock vs 007.
293T and A549 cells were transfected using FuGENE6 reagent for 48 hours (Roche Diagnostics Corporation). For siRNA, A549 cells and HUVEC were transfected using oligofectamine (Invitrogen) for 24 to 48 hours according to the manufacturer's instructions. In the case of the HUVEC, transfection was repeated after 24 hours. Samples were analyzed 48 hours after the second round of transfection. Oligos sequences (Dharmacon): PDZ-GEF2 (285: GGATCCAACTTATATAGAA) (SEQ ID NO:______); (289: GACACGGATTGTATTATTA) (SEQ ID NO:______); *Epac1 (GCACCTA CGTCTGCAACAA) (SEQ ID NO:______) and (CCATCATCCTGCGAGAAGA) (SEQ ID NO:______). 8-pCPT-2′O-Me-cAMP/8-pCPT -2′-OMe-cAMP (Biolog) was used at a final concentration of 100 μM. Quantification of the PDZ-GEF2 knockdown was performed using Scion Image (Scion Corporation).
To assess endothelial permeability, we measured electrical resistance continuously across endothelial cell monolayer using the methodology known as “Electric Cell-Substrate Impedance Sensing” (ECIS).^[21] Briefly, HUVEC were grown to confluence on small gold electrodes and ECIS was subsequently monitored for up to 15 hours. Data was analyzed using the Applied Biophysics software.

Setting [1] is: HUVEC, 100 μM, 30-minute stimulation.

Structures are written as SMILES.

For the molecule `CO[C@@H]1[C@@H]2OP(=O)(O)OC[C@H]2O[C@H]1n1c(Sc2ccc(Cl)cc2)nc2c(N)ncnc21` [8-pCPT-2′-OMe-cAMP], where the note is “90 minutes after adding 007, PDZ-GEF2.285, p<0.001 mock vs 007”, the “endothelial resistance in PDZ-GEF2 knockdown HUVEC” value is listed as “rescues the PDZ-GEF2 knockdown phenotype”. Further, the “endothelial resistance in control HUVEC” value (90 minutes after adding 007 to the culture media, p<0.03 mock vs 007) was “increases endothelial resistance”. Besides, for the setting “HUVEC transfected with Epac1 siRNA, 100 μM”, the “electrical resistance in Epac1 siRNA cells” value is “minimal effect”. In addition, under setting [1], the “electrical resistance in scrambled siRNA cells” value was “increased resistance” and the “decreased resistance in PDZ-GEF2-depleted cells” value was “completely rescued”. Besides, the “decreased resistance in PDZ-GEF2-depleted cells” value (HUVEC, 100 μM, 30-minute stimulation, listed as 8-pCPT-2′OMe-cAMP) is “rescued”.
